Experimental data taken from ChEMBL document CHEMBL4418287, “Lysyl oxidase-like 2 inhibitors and uses thereof” (2018).
Calls of active or inactive are those of the source.

Columns and labels:
Assay type in all cases: functional, organism-based
Mus musculus [1] = experiment: Antifibrotic activity in C57BL/6 mouse model of bleomycin-induced lung fibrosis assessed as reduction in hydroxyproline in lung homogenates at 60 mg/kg, po pre-treated 1 hr to 1 day before bleomycin injection and measured after 14 to 28 days by chloramine T and Erlich's solution based assay
Mus musculus [2] = experiment: Antifibrotic activity in C57BL/6 mouse model of bleomycin-induced lung fibrosis assessed as reduction in cross linked collagen level in lung at 60 mg/kg, po pre-treated 1 hr to 1 day before bleomycin injection and measured after 14 to 28 days by Picro-Sirius staining based assay
Mus musculus [3] = experiment: Antifibrotic activity in C57BL/6 mouse model of bleomycin-induced lung fibrosis assessed as reduction in alpha smooth muscle actin level in lung at 60 mg/kg, po pre-treated 1 hr to 1 day before bleomycin injection and measured after 14 to 28 days by immunohistochemistry analysis
Mus musculus [4] = experiment: Antifibrotic activity in C57BL/6 mouse model of bleomycin-induced lung fibrosis assessed as reduction in cross linked collagen level in lung at 60 mg/kg, po pre-treated 1 hr to 1 day before bleomycin injection and measured after 14 to 28 days by Masson's trichrome staining based assay
Mus musculus [5] = experiment: Antifibrotic activity in C57BL/6 mouse model of bleomycin-induced lung fibrosis assessed as reduction in collagen level in lung at 60 mg/kg, po pre-treated 1 hr to 1 day before bleomycin injection and measured after 14 to 28 days by hydroxyproline assay

Measured: Activity

NCc1cc(Oc2cccc(C(=O)NCc3ccnc(Cl)c3)c2)ncn1
active: all assays above

NCc1cc(Oc2cccc(C(=O)N3CCN(c4ccccc4)CC3)c2)ncn1
active: all assays above
